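Following 48 hours of exposure in 96-well plates, responses at five concentrations were used to interpolate endpoints linearly. Abbreviation: GI50, concentration required for 50% inhibition of growth. The concentration for full growth arrest is given as TGI.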
Columns and labels:
Experiment in all cases: NCI tumour cell line growth inhibition, 48 h
IGROV1 ovarian = system: IGROV1 ovarian
SW-620 colon = system: SW-620 colon
OVCAR-5 ovarian = system: OVCAR-5 ovarian
MCF7 breast = system: MCF7 breast
SR leukemia = system: SR leukemia
HS 578T breast = system: HS 578T breast
OVCAR-3 ovarian = system: OVCAR-3 ovarian
HCC-2998 colon = system: HCC-2998 colon
HOP-92 NSCLC = system: HOP-92 NSCLC
SK-OV-3 ovarian = system: SK-OV-3 ovarian

Structure (SMILES) | GI50 (IGROV1 ovarian) [µM] | TGI (IGROV1 ovarian) [µM] | TGI (SW-620 colon) [µM] | GI50 (OVCAR-5 ovarian) [µM] | TGI (OVCAR-5 ovarian) [µM] | TGI (MCF7 breast) [µM] | GI50 (SR leukemia) [µM] | TGI (HS 578T breast) [µM] | TGI (OVCAR-3 ovarian) [µM] | GI50 (HCC-2998 colon) [µM] | TGI (HCC-2998 colon) [µM] | GI50 (HOP-92 NSCLC) [µM] | TGI (HOP-92 NSCLC) [µM] | TGI (SK-OV-3 ovarian) [µM] | GI50 (SW-620 colon) [µM] | GI50 (MCF7 breast) [µM] | TGI (SR leukemia) [µM] | GI50 (HS 578T breast) [µM] | GI50 (OVCAR-3 ovarian) [µM] | GI50 (SK-OV-3 ovarian) [µM]
Cc1cc(NC(=O)NC(=O)c2ccccc2N(C)C)ccc1Oc1ncc(Br)cn1 | 0.356 | > 63.1 | > 71.1 | 2.61 | > 67.5 | 29.2 | 0.135 | > 100 | 11.1 | 1.1 | 11.8 | 5.5 | 46.2 | 16.8 | – | – | – | – | – | –
O=C(O)C1C(C(=O)O)C2(Cl)C(Cl)=C(Cl)C1(Cl)C2(Cl)Cl.[Cd] (centres undefined) | 17.7 | 34.2 | 77.1 | 18.2 | 32.9 | 35.9 | 2.8 | > 87 | 19.7 | 22.6 | 47.7 | 19.2 | 34.8 | 36.2 | 23.1 | 17.3 | 32.7 | 23.5 | 7.81 | 19.6
COc1ccc(-c2nc3c(c(=O)n2C(C)=O)C(c2ccc(Cl)cc2)c2sc4c(Cl)cccc4c2O3)cc1 (centres undefined) | 0.512 | 3.12 | 1.75 | 1.2 | 3.4 | 1.37 | 0.354 | 4.44 | 1.85 | 0.68 | 2.48 | 1.33 | 4.58 | 2.09 | 0.376 | 0.151 | 5.05 | 0.521 | 0.383 | 0.349
CCc1cccc(CC)c1/C=C/c1cncc(C(=O)NC)c1 | > 21.7 | > 25 | > 25 | > 17.6 | > 25 | > 25 | 7.24 | > 25 | > 20.2 | 11.2 | > 25 | 1.27 | > 25 | > 25 | 10.5 | 7.74 | > 25 | 7.65 | 8.14 | 8.75
Nc1ncnc2c1c(-c1ccc(Oc3ccccc3)cc1)nn2C[C@@H]1SSC[C@@H]1O | 0.839 | 3.26 | > 84 | 2.16 | 26.2 | 1.31 | 0.0385 | 11.6 | 1.04 | 0.479 | 14.8 | 1.62 | 6.04 | 3.71 | 0.432 | 0.129 | 0.27 | 2.02 | 0.277 | 0.498
COc1cc2cc(Oc3ccc(NC(=O)c4cccc5c4OCCO5)cc3)c(C)nc2cc1OC | 64.5 | > 100 | > 100 | 10.8 | > 100 | > 100 | 4.12 | > 100 | > 100 | 5.5 | > 100 | 3.93 | 30.6 | > 100 | 49.9 | 6.27 | > 100 | 5.64 | 17.1 | 49.8
CN(C)C/C=C/C(=O)Nc1ccc(C(=O)N2CCC[C@@H](Nc3ncc(Cl)c(-c4c[nH]c5ccccc45)n3)C2)cc1 | 0.149 | 11.3 | 5.74 | 0.328 | 11.6 | 7.16 | 0.0337 | 1.45 | 0.99 | 0.107 | 1.2 | 0.244 | 1.54 | 12.4 | 0.191 | 0.0427 | 1.03 | 0.214 | 0.0644 | 0.395
O=C(Cc1ccc(/C=C/C(=O)c2ncc[nH]2)cc1)Nc1ccc(C(F)(F)F)cc1 | 3.84 | 15.9 | 5.17 | 4.89 | 10.2 | 4.31 | 0.843 | > 33.3 | 3.35 | 3.97 | 8.61 | 4.89 | 11.1 | 26.3 | 1.35 | 0.851 | > 33.3 | 5.88 | 1.09 | 7.66
NC(=O)C(=O)n1ncc(Cl)c(Cl)c1=O | – | > 77.4 | 35.3 | – | 63.1 | > 100 | – | > 100 | 50.8 | – | 32.1 | – | > 57.8 | > 100 | – | – | > 49.7 | – | – | –
